Measurements as given in patent US10022362B2, “Anti-allergy benzocycloheptathiophene derivatives” (FUJIAN MINDONG REJUVENATION PHARMACEUTICAL CO., LTD., priority 2011, dated 2018).

Tests used:
[1] = test system: Mice passively sensitized with anti-DNP IgE mAb, DNFB challenge; test: Prophylactic effects: IgE-mediated late phase cutaneous reactions (ear and foot swelling); assay type: in vivo; conditions: 1 mg/kg orally twice (before IgE injection and before DNFB challenge), thickness measured after 24 h, FIG. 1B
Experimental: Mice were given 4-[1-(5-methyl-pyridin-3-ylmethyl)piperidin-4-ylidene]-4,9-dihydro-1-thia-benzo[f]azulen-10-one (1 mg/kg) or ketotifen (1 mg/kg) orally twice as per the schedule dosing regimen provided in FIG. 1A as indicated by the numbered dose in a circle. The first dose (indicated by a circled number 1) was given on day 1 before IgE injection and a 2nd dose (indicated by a circled number 2) was given on day 2 before dinitrofluorobenzene (DNFB, as an allergen) challenge. Mice were passively sensitized by i.v. injection of 2 μg anti-DNP IgE mAb (Sigma). After 24 h, a cutaneous reaction was elicited by the application of 20 μl of DNFB (0.3% wt/vol, Sigma) in acetone-olive oil (4:1) to both sides of the left hind paw or left ear, and 20 μl of acetone-olive oil to the right hind paw or right ear as a control. The thickness of foot pad or ear was measured using a digital micrometer after 24 h. The thickness of the right ear or right hind paw (treated with acetone-olive oil only) was used as baseline values. The DNFB-induced increment of tissue thickness was expressed as the percentage of the baseline values.

[2] = test system: Mice sensitized with anti-DNP IgE mAb, DNP-BSA challenge; test: Prophylactic effects: IgE-mediated passive cutaneous anaphylaxis (Evan's blue dye leakage); assay type: in vivo
Experimental: Mice were given 4-[1-(5-methyl-pyridin-3-ylmethyl)piperidin-4-ylidene]-4,9-dihydro-1-thia-benzo[f]azulen-10-one (1 mg/kg) or ketotifen (1 mg/kg) orally as per dosing schedule shown in FIG. 2A. Subsequently, mice were sensitized by intradermal injection of 20 ng antidinitrophenyl (DNP) IgE mAb (Sigma) into left ears, while right ear received saline as a control. After 24 h, mice were challenged by i.v. injection of 100 μg of DNP-Bovine Serum Albumin (BSA) (as an allergen) in 200 μl Evan's blue dye (1% wt/vol, Sigma). Thirty min later, ear punch (8 mm) was collected in 300 μl of formamide and incubated at 80° C. for 2 h in water bath to extract Evan's blue dye. The absorbance was determined at 620 nm. […] Granule-associated mediators such as histamine stimulate endothelium and blood vessel smooth muscle cells leading to increased vascular permeability.

[3] = test system: Mice passively sensitized with anti-DNP IgE mAb, DNFB application; test: Therapeutic effects: IgE-mediated late phase cutaneous reactions (ear and foot swelling); assay type: in vivo; conditions: FIG. 3B
Experimental: After 24 h, a cutaneous reaction was elicited by the application of 20 μL of DNFB (0.3% wt/vol, Sigma) in acetone-olive oil (4:1) to both sides of the left hind paw or left ear, and 20 μl of acetone-olive oil to the right hind paw or right ear as a control as shown in FIG. 3A. Three hours after DNFB application, mice were given 4-[1-(5-methyl-pyridin-3-ylmethyl)piperidin-4-ylidene]-4,9-dihydro-1-thia-benzo[f]azulen-10-one (1 mg/kg, p.o.), ketotifen (1 mg/kg, p.o.) or saline as control as indicated in FIG. 3A by the circled number “1”. The thickness of foot pad or ear was measured using a digital micrometer after 24 h of DNFB application. The weight of hind paw or ear punch (5 mm) was also determined. The thickness and weight of the right ear or right hind paw (treated with acetone-olive oil only) were used as baseline values. The DNFB-induced increment of tissue thickness was expressed as the percentage of the baseline values.

[4] = test system: Mouse bone marrow derived mast cells (BMMCs); test: Allergen-induced cytokine IL-6 production by mast cells in vitro; assay type: cell-based; conditions: FIG. 4
Experimental: Mouse bone marrow derived mast cells (BMMCs) were resuspended in fresh complete medium supplemented with TIB141-conditioned medium enriched in IgE directed against trinitrophenyl (TNP) at a ratio of 3:1. BMMCs were typically sensitized at 0.5 million/ml. Following sensitization, BMMCs were washed extensively with RPMI 1640 supplemented with 10% FBS alone. BMMCs were then treated with 4-[1-(5-methyl-pyridin-3-ylmethyl)piperidin-4-ylidene]-4,9-dihydro-1-thia-benzo[f]azulen-10-one or ketotifen at the concentration of […], 1, 10 or 100 μM for 1 hour and subsequently stimulated with antigen TNP-BSA (10 ng/ml) for 6 h. Cytokine levels in the cell free supernatant were determined by ELISA.

[5] = test system: Mouse bone marrow derived eosinophils; test: Inhibition of eosinophil proliferation in vitro (3H-thymidine incorporation); assay type: cell-based; conditions: for thymidine incorporation (eosinophil proliferation): eosinophils cultured with IL-5 (50 ng/ml), treated 1 hour, 3H-thymidine pulse 18 hours, CPM
Experimental: Mouse bone marrow derived eosinophils (1×10^5 cells/well) were seeded in 96 well plates in triplicate and were cultured with IL-5 (50 ng/ml). Eosinophils were treated with 4-[1-(5-methyl-pyridin-3-ylmethyl)piperidin-4-ylidene]-4,9-dihydro-1-thia-benzo[f]azulen-10-one (Compound A) or ketotifen for 1 hour. Cells were then pulsed with 0.5 μCi of ^3H-thymidine for 18 hours. Cells were harvested to glass fiber paper using a suction manifold and washed extensively to eliminate unincorporated thymidine. Fiber paper was dried and added to vials with 2.5 ml of scintillation fluid (Ecolite). Thymidine incorporation was measured on a Wallac beta counter.
The incorporation of ^3H-thymidine (eosinophil proliferation) was quantified by liquid scintillation counting (CPM).

[6] = 1 mg/kg p.o. each, three hours after DNFB application

| Compound | allergen DNFB-induced ear and foot swelling [1] | allergen (DNP)-induced Evan's blue dye leakage ([2]; 1 mg/kg orally before sensitization, compared to the vehicle control, FIG. 2B) | time after oral administration at which inhibitory effects on Evan's blue dye leakage and tissue swelling were observed ([2]; 1 mg/kg orally, suggesting long-lasting effects) [h] | block of swelling and weight increase of ear and feet, compared with ketotifen [3, 6] | foot weight, activity compared with ketotifen [3, 6] | DNP-induced swelling and increase the weight of the ear and the feet ([3]; 1 mg/kg p.o. three hours after DNFB application, measured 24 h after DNFB application) | cytokine IL-6 production by mast cells ([4]; BMMCs treated at 01, 1, 10 or 100 μM for 1 hour, then TNP-BSA (10 ng/ml) for 6 h, ELISA) | reduction of IL-6 production by mast cells, compared with ketotifen ([4]; equivalent concentrations (01, 1, 10 or 100 μM)) | thymidine incorporation (eosinophil proliferation) [5] | inhibition on eosinophil proliferation, compared with ketotifen ([5]; p<0.01, n=3 experiments, FIG. 5) |
| --- | --- | --- | --- | --- | --- | --- | --- | --- | --- | --- |
| Cc1cncc(CN2CCC(=C3c4ccccc4CC(=O)c4sccc43)CC2)c1 [Compound A, 4-[1-(5-methyl-pyridin-3-ylmethyl)-piperidin-4-ylidene]-4,9-dihydro-1-thia-benzo[f]azulen-10-one] | strongly reduced | strongly reduced | 24 | comparable to ketotifen | surpassing the activity of ketotifen | significantly block | significantly reduce | even more effective than ketotifen at some of the equivalent concentrations used | dose-dependently reduced | significantly stronger inhibition |
| CN1CCC(=C2c3ccccc3CC(=O)c3sccc32)CC1 [ketotifen, reference compound] |  |  |  |  |  |  |  |  | dose-dependently reduced |  |
